Several values for one entry are separate records, joined by “and”; a condition that tells them apart may be missing. Equal values may be shown once. Read-outs that look alike come from different tables or passages of the source.
Assays:
[1] = tested on: Salmonella typhimurium TA100; assay: Reverse mutation screening assay; assay type: cell-based
Procedure: (§1) The test was conducted at Biosafety Research Center for Foods, Drugs and Pesticides, in Shizuoka, Japan.

[2] = tested on: Salmonella typhimurium TA98; assay: Reverse mutation screening assay; assay type: cell-based
Procedure: as §1

[3] = tested on: Escherihia coli (IFO 3972); assay: Efficacy comparison (MIC method) of hinokitiol as single substance and the invented agent; assay type: cell-based, Escherichia coli; parameters: key to growth: growth of bacteria is shown as “+”; no growth is shown as “−”; conditions: 7 days at 30° C.
Procedure: (§2) Escherihia coli (IFO 3972) and Aspergillus niger (IFO 4414) were used utilizing the minimum inhibitory method (MIC) to conduct a comparison testing the efficacy of hinokitiol as a single substance and the invented aqueous disinfectant.
(§3) Type II of the invented agent as previously described, having a hinokitiol concentration of 0.1 weight % (1000 ppm) was diluted 10 times, 20 times, 50 times, and 100 times and standard agar plate for E-coli and potato dextrose agar plate for aspergillus niger were prepared for each concentration. With hinokitiol as single substance, for 1000 g of water, 1 g of hinokitiol was used to make 0.1% solution, and this was diluted 10 times, 20 times, 50 times, and 100 times and standard agar plates and potato dextrose plates were prepared at each concentration. E-coli and aspergillus niger were implanted to the plate and cultivated for 7 days at 30° C. and the growth of the bacteria was observed. The result are shown in Table 4 below, where growth of bacteria is shown as “+”, and no growth is shown as “−”.

[4] = cited from earlier work
[5] = Water solubility of hinokitiol; assay type: physicochemical
Text: It has been said that the water solubility of hinokitiol as a single substance, in weight is maximum 0.2 weight %. However, in our experiment, we could not make it more than 0.1 weight %.
With this invention, by mixing hinokitiol with the extract of aloe vera, green tea, low striped bamboo and dokudami, it is possible to make a 1.0 weight % water solution without difficulty. In addition to the above mixture, we have succeeded in making 10 weight % of concentration of hinokitiol in water basis by adding glycerin fatty acid ester as surface active agent and cara saponine, which is an emulsifier. Alcohol (ethanol) is not required as an ingredient to achieve the above noted high concentration of hinokitiol.
It is known fact that with the addition of ethanol, it is possible to make 5 weight % water solution but for some foods, adding alcohol is not suitable and can change the taste of foods. Therefore, this invention of non-alcoholic water soluble disinfectant solution has particular significance.

[6] = tested on: Aspergillus niger (IFO 4414); assay: Efficacy comparison (MIC method) of hinokitiol as single substance and the invented agent; assay type: cell-based; parameters: key: growth of bacteria is shown as “+”; no growth is shown as “−”; conditions: 7 days at 30° C.
Procedure: as §2, §3

[7] = positive control requiring S9 mix, 1.0 μg/plate, Table 15
[8] = positive control requiring S9 mix, 1.0 μg/plate, Table 16
[9] = positive control requiring S9 mix, 0.5 μg/plate, Table 15
[10] = positive control requiring S9 mix, 0.5 μg/plate, Table 16
[11] = positive control not requiring S9 mix, 0.01 μg/plate, Table 15
[12] = positive control not requiring S9 mix, 0.01 μg/plate, Table 16
[13] = positive control not requiring S9 mix, 0.1 μg/plate, Table 15
[14] = positive control not requiring S9 mix, 0.1 μg/plate, Table 16
[15] = 10 times dilution of 0.1 weight % hinokitiol solution
[16] = 20 times dilution of 0.1 weight % hinokitiol solution
[17] = 50 times dilution of 0.1 weight % hinokitiol solution
[18] = 100 times dilution of 0.1 weight % hinokitiol solution

Nc1ccc2cc3ccccc3cc2c1 [2-AA]
No. of revertants, mean in parentheses [1, 7]: 686 colonies/plate | No. of revertants, single plates [1, 7]: 683 colonies/plate and 688 colonies/plate | No. of revertants, mean in parentheses [1, 8]: 649 colonies/plate | No. of revertants, single plates [1, 8]: 647 colonies/plate and 650 colonies/plate | No. of revertants, mean in parentheses [2, 9]: 200 colonies/plate | No. of revertants, single plates [2, 9]: 203 colonies/plate and 196 colonies/plate | No. of revertants, mean in parentheses [2, 10]: 208 colonies/plate | No. of revertants, single plates [2, 10]: 197 colonies/plate and 219 colonies/plate

NC(=O)/C(=C\c1ccc([N+](=O)[O-])o1)c1ccco1 [AF-2]
No. of revertants, mean in parentheses [1, 11]: 370 colonies/plate | No. of revertants, single plates [1, 11]: 377 colonies/plate and 363 colonies/plate | No. of revertants, mean in parentheses [1, 12]: 410 colonies/plate | No. of revertants, single plates [1, 12]: 408 colonies/plate and 412 colonies/plate | No. of revertants, mean in parentheses [2, 13]: 733 colonies/plate | No. of revertants, single plates [2, 13]: 747 colonies/plate and 718 colonies/plate | No. of revertants, mean in parentheses [2, 14]: 692 colonies/plate | No. of revertants, single plates [2, 14]: 698 colonies/plate and 686 colonies/plate

CC(C)c1cccc(=O)c(O)c1 [Hinokitiol, β-Thujaplicin]
growth [3, 15]: − | growth [3, 16]: + | growth [3, 17]: + | growth [3, 18]: + | hinokitiol concentration of the highest dilution that is effective (MIC method) ([3]; E-coli and Aspergillus niger): 0.01% | water solubility of hinokitiol as a single substance, maximum as has been said ([4]; in water): ≤ 0.2 weight % | hinokitiol water solution obtainable ([4]; with the addition of ethanol, known fact): 5 weight % | concentration of hinokitiol in water basis obtainable ([5]; extracts plus glycerin fatty acid ester and cara saponine, no alcohol): 10 weight % | water solubility of hinokitiol as a single substance, in our experiment ([5]; in water): ≤ 0.1 weight % | hinokitiol water solution obtainable ([5]; mixed with extract of aloe vera, green tea, low striped bamboo and dokudami): 1.0 weight % | growth [6, 15]: − | growth [6, 16]: + | growth [6, 17]: + | growth [6, 18]: +

— US6554620B1, “Aqueous disinfectant/sterilizing agent for foods” (priority 2001, dated 2003)
